Experimental data from patent US20230321171A1, “ANTI-COCCIDIAL COMPOSITION COMPRISING MANGOSTEEN AND USES THEREOF” (CJ CHEILJEDANG CORPORATION, priority 2020, published 2023).

Key:
[1] = system: Eimeria tenella; experiment: Protozoan (sporozoite) direct killing ability, Eimeria tenella; format: cell-based; details: for Eimeria tenella protozoal death rate (%): compared to PBS-treated negative control group
Procedure: (§1) In the present example, protozoan (sporozoite) direct killing ability evaluation was conducted against 3 representative Eimeria kinds known to be infected in most farms (E. tenella, E. acervulina, E. maxima).
(§2) A certain amount of oocysts of each protozoan was put in a tube containing glass beads and pulverized, and then to remove the crushed oocyst cell wall and other debris, internal sporocysts were purified using the percoll density gradient, and washed with PBS solution. A reagent comprising sodium taurocholic acid (Sigma aldrich, USA) and trypsin (Gibco, USA), respectively, was treated to sporocysts of Eimeria tenella, Eimeria acervulina and Eimeria maxima for excystation and they were incubated, and then they were washed with PBS solution once and protozoa were obtained.
(§3) After reacting the mangosteen pericarp extract, epicatechin, alpha-mangostin, xanthone and anticoccidial agents, salinomycin and diclazuril (hereinafter, material) with 3 kinds of Eimeria protozoa at various concentrations of 1 to 500 ppm, respectively, only alive protozoa (sporozoites) were counted through microscopic observation. Then, the death rate (%) of the protozoa when each material was treated compared to the PBS-treated negative control group was calculated and shown in Table 8 to Table 10 and Table 12, respectively, and the minimum concentration which directly killed the protozoa by 100% was shown in Table 11 below.

[2] = system: RAW264.7(Mouse macrophage cell); experiment: Cytotoxicity, MTS analysis, RAW264.7; details: 3.1~500 ppm/well, 14 hours + 2 hours MTS, vs 5% DMSO treatment group
Source text: In the present example, using MTS analysis method (3-(4,5-[…])-5-(3-carboxymethoxyphenyl)-2-(4-sulfophenyl)-2H-tetrazolium, promega, USA), an effect on survival of cells of the mangosteen extract was investigated.
The cell lines utilized in cytotoxicity evaluation were (1) MDBK(Madin-Darby Bovine Kidney Epithelial Cells) and (2) RAW264.7(Mouse macrophage cell), and all of them were purchased from ATCC and used.
Each cell was aliquoted at a concentration of 1×10^5 cell/well in a 96-well cell culture plate, and cultured at 37° C. for 24 hours, and then each material (mangosteen extract, xanthone, alpha-mangostin and epicatechin) was treated by concentration (3.1˜500 ppm/well) and cultured at a temperature of 37° C.

[3] = system: Eimeria tenella; experiment: In vivo anticoccidial efficacy evaluation in broilers challenge-inoculated with Eimeria tenella; set-up: species or system Ross broilers
Procedure: An in vivo anticoccidial efficacy evaluation test was performed in an animal experiment facility in Gyeongsangnam-do, South Korea. One-day-old female Ross broilers were individually weighed and randomly divided into groups to use in an experiment. Matters and conditions for experimental design were described in Table 2.
A breeding farm was managed according to the Korean poultry breeding management guidelines. Cages and the breeding farm were cleaned and disinfected before starting the test. The temperature of […] and the humidity of 40 to 50% of the breeding farm were maintained, and it was continuously monitored.
For the feed, Korea Feed Al-choi product was used, and each material (salinomycin (Cheil Bio Cheilsalino-60 product), xanthone (Sigma Aldrich X600 product), and the mangosteen extract prepared in Example 1-2 above) was added to the feed, respectively, at a concentration described in Table 3 below to be self-mixed. Antibiotics and supplements were not used in general feed and mixed feed, and no anticoccidial agent other than each material was added. Broilers were fed ad libitum throughout the experiment period. After putting 20 1-day-age broilers in cages randomly placed for each of the control group or test group and breeding, general feed was fed for 7 days, and then the mixed feed prepared above was ingested by dividing by control group or test group.
The feed formulation administered to the control group (negative control group or positive control group) and test group and whether coccidiosis was induced by Eimeria tenella were described in Table 3 below. 20 1-day-old broilers were put in a cage randomly arranged for each test group, and after 7 days of feeding the general feed, the formulated feed as described in Table 3 was divided into each test group and ingested.
14-day-old broilers were orally inoculated with 10,000 oocysts (90% sporulated Eimeria tenella oocysts) per individual to induce coccidiosis.
The anticoccidial efficacy by test group designed in Example 1-3 above was shown as an anticoccidial index (ACI), and the anticoccidial index was calculated by Equation 2 below. The ACI score is out of 200 points, and the higher the ACI score, the more excellent the anticoccidial ability, and when it is 120 points or more to less than 140 points, it is determined that it is effective as an anticoccidial material, and when it is 140 points or more to less than 160 points, it is determined that it is excellent as an anticoccidial material, and when it is 160 points or more, it is determined that the anticoccidial effect is very excellent. (Luis Miguel De Pablos et al., Anticoccidial activity of maslinic acid against infection with Eimeria tenella in chickens, Parasitol Res, 2010)
Anticoccidial index (ACI)=(survival rate after challenge inoculation (%))+(daily weight gain compared to negative control group (RWG, %))−(lesion score×10)−(fecal oocyst excretion amount index) (Equation 2)
1) Survival rate: the number of dead individuals was recorded daily, and post mortem autopsy was performed to determine a cause of mortality, and the number of individuals who died due to causes other than coccidiosis was excluded. The survival rate (%) up to the 8th day after challenge inoculation was used for anticoccidial index calculation.
2) Daily weight gain: body weight was measured for each cage before challenge inoculation with a protozoan into an individual and at the 7th day after challenge inoculation, and the difference was divided by the number of days to calculate the daily weight gain (ADG, g/d). ‘Daily weight gain compared to the negative control group (RWG, %)’which was calculated by dividing the daily weight gain (ADG, average daily gain; g/d) of each experimental group by the weight gain (ADG, g/d) of the non-infected negative control group and multiplying by 100 was used for anticoccidial index calculation. […]

[4] = system: Eimeria maxima; experiment: Protozoan (sporozoite) direct killing ability, Eimeria maxima; format: cell-based; details: for Eimeria maxima protozoal death rate (%): compared to PBS-treated negative control group
Procedure: as §1, §2, §3

O=c1c2ccccc2oc2ccccc12 [Xanthone, xanthone]
Eimeria tenella protozoal death rate (%) ([1]; 1 ppm): 0% | Eimeria tenella protozoal death rate (%) ([1]; 5 ppm): 0% | Eimeria tenella protozoal death rate (%) ([1]; 10 ppm): 0% | Eimeria tenella protozoal death rate (%) ([1]; 50 ppm): 0% | Eimeria tenella protozoal death rate (%) ([1]; 100 ppm): 0% | Eimeria tenella protozoal death rate (%) ([1]; 125 ppm): 10% | Eimeria tenella protozoal death rate (%) ([1]; 250 ppm): 0% | Eimeria tenella protozoal death rate (%) ([1]; 500 ppm): 15% | Minimum concentrataion of killing protozoa 100% (ppm) ([1]; Eimeria tenella, Table 15, method similar to Example 2-1): ≥500 ppm | Minimum concentration for killing 100% protozoa (ppm), Eimeria tenella ([1]; tested 1 to 500 ppm): >500 ppm | Minimum concentrataion of cytotoxicity at which cells of 50% or more survive (ppm) [2]: ≥62.5 ppm | Intermediate body weight (14-day-old, before challenge inoculation) ([3]; formulated feed 62.5 ppm from day 7, female Ross broilers): 470.9 | Appendix lesion score ([3]; formulated feed 62.5 ppm, 8th day after challenge inoculation, scale of 0-4): 2.4 | End body weight (21-day-old, on the 7th day of challenge inoculation) ([3]; formulated feed 62.5 ppm, 10,000 E. tenella oocysts oral at 14 days): 887.0 | Day 14~Day 21 ADG (daily weight gain) ([3]; formulated feed 62.5 ppm, E. tenella infected broilers): 56.42 g/day | Anticoccidial index (ACI) ([3]; formulated feed 62.5 ppm, Equation 2, out of 200 points): 122 | Oocyst excretion amount/gram ([3]; formulated feed 62.5 ppm, feces of 6~8th day of challenge inoculation, McMaster chamber): 1.80E+08 /gram | RWG (daily weight gain compared to the negative control group) ([3]; formulated feed 62.5 ppm, relative to non-infected negative control group): 85% | Eimeria maxima protozoal death rate (%) ([4]; 1 ppm): 0% | Eimeria maxima protozoal death rate (%) ([4]; 5 ppm): 0% | Eimeria maxima protozoal death rate (%) ([4]; 10 ppm): 0% | Eimeria maxima protozoal death rate (%) ([4]; 50 ppm): 0% | Eimeria maxima protozoal death rate (%) ([4]; 100 ppm): 0% | Eimeria maxima protozoal death rate (%) ([4]; 125 ppm): 0% | Eimeria maxima protozoal death rate (%) ([4]; 250 ppm): 5% | Eimeria maxima protozoal death rate (%) ([4]; 500 ppm): 12% | Minimum concentration for killing 100% protozoa (ppm), Eimeria maxima ([4]; tested 1 to 500 ppm): >500 ppm
